Question: For `NC(=NC(=O)c1nc(Cl)c(N)nc1N)NCCCCc1ccc(OCC(=O)N(CCO)CCO)cc1`, which melting point is on record?
Answer: 114 to 116 °C

Question: For `O=C(O)c1ccccc1-c1n[nH]c(-c2cccc(C(F)(F)F)c2)n1`, which melting point is on record?
Answer: 200 °C

Question: With `COc1ccc(C(=O)Nc2c(Cl)cncc2Cl)c2c1OCC2CC(=O)NCc1ccc(F)cc1` (stereo not given) as the compound, how does the melting point read?
Answer: 287 °C

Question: With `O=C(O)COCC(=O)NC12CC3CC(CC(C3)C1)C2` as the compound, how does the melting point read?
Answer: 181 to 183 °C

Question: With `Nc1ncc(CN2CCN(c3ccccc3)CC2)c2nc(-c3ccco3)nn12` as the compound, how does the melting point read?
Answer: 185 to 187 °C

Question: For `O=c1[nH]c2cc(Cl)ccc2c(O)c1-n1ccccc1=O`, which melting point is on record?
Answer: 355 °C

Question: Which melting point does the source give for `COC(=O)ON=C1C(=O)c2ccccc2-c2ccccc21` here?
Answer: 142 to 143 °C

Question: Which melting point does the source give for `COc1ccc(NC(=O)c2ccc(C3=NC(C)(C)Cc4cc(OC)c5c(c43)CC(C)(C)O5)cc2)cc1` here?
Answer: 120 to 122 °C

Question: Which melting point does the source give for `COc1nc(C)c(C(C)OC(=O)CCC(=O)O)cc1NC(=O)N1CCN(c2cc(C)cc(C)c2)CC1` (stereo not given) here?
Answer: 138 to 140 °C

Question: For `CC(=O)OC1CSC(Oc2ccc(F)nc2)C(OC(C)=O)C1OC(C)=O` (stereo not given), which melting point is on record?
Answer: 123 °C

Question: With `CCOc1ccnc2[nH]ccc12` as the compound, how does the melting point read?
Answer: 176 to 178 °C

Question: For `CCCCCCCCCCCCS(=O)(=O)N1CCCSC1=C(Br)[N+](=O)[O-]`, which melting point is on record?
Answer: 70 to 71 °C

Question: Which melting point does the source give for `COc1cc2c(cc1Nc1ncc(Cl)c(N[C@@H]3CCCC[C@H]3NS(C)(=O)=O)n1)CCN(CC(=O)N1CCCC1)CC2` here?
Answer: 120 to 135 °C

Question: Which melting point does the source give for `CCCCc1nc(C(F)(F)C(F)(F)F)c(CO)n1Cc1ccc(-c2ccccc2C(=O)O)cc1` here?
Answer: 190 to 191 °C

Question: Which melting point does the source give for `CN(C)c1ccc(C(NC(c2ccccc2)c2ccccc2)P(O)O)cc1` (stereo not given) here?
Answer: 205 °C

Question: With `Oc1ccc(Oc2ccc(Cl)cc2Cl)cc1` as the compound, how does the melting point read?
Answer: 82 °C

Question: With `COC(=O)CCCCCCCCCCCCCCCCCCCS(=O)(=O)c1ccc(C)cc1` as the compound, how does the melting point read?
Answer: 72.5 to 73.5 °C

Question: Which melting point does the source give for `CCC1Nc2cc(F)c(F)c(F)c2-n2cccc21` (stereo not given) here?
Answer: 69 to 70 °C

Question: For `Cc1cc(C)cc(-n2c(C=CC3CC(O)CC(O)O3)c(C(C)C)c3ccccc3c2=O)c1` (mixture of isomers), which melting point is on record?
Answer: 180 to 182 °C

Question: For `CC(=O)N1c2ccc(S(=O)(=O)C[N+](=O)[O-])c(C)c2CC1C` (stereo not given), which melting point is on record?
Answer: 157 °C

Question: Which melting point does the source give for `COc1cc2nc(N3CCN(C(=O)C=Cc4ccc(N(C)C)cc4)CC3)nc(N)c2cc1OC` here?
Answer: 288 to 289 °C

Question: For `C=C1C(=O)C2CCC1(C)C2(C)C` (stereo not given), which melting point is on record?
Answer: 69 to 75 °C

Question: With `Cc1c(C(=O)N=C(N)N)cc(S(C)(=O)=O)c(-n2ccnc2)c1C` as the compound, how does the melting point read?
Answer: 249 °C

Question: With `CNc1cc(CC(C#N)=CNc2ccccc2)cc(NC)c1Cl` as the compound, how does the melting point read?
Answer: 142 to 147 °C

Question: With `Nc1cccc(Oc2ccc(Sc3ccc(Oc4cccc(N)c4)cc3)cc2)c1` as the compound, how does the melting point read?
Answer: 112 to 113 °C

Question: For `Cc1cc(C(=O)N2Cc3ccc(C(=O)O)n3Cc3ccccc32)ccc1-c1ccccc1C(F)(F)F`, which melting point is on record?
Answer: 127 to 130 °C

Question: Which melting point does the source give for `CCCCCCCCOc1ccc(C(=O)OC)c(O)c1` here?
Answer: 46 to 47 °C

Question: Which melting point does the source give for `CCN(CC)c1nc(NC(N)=NOC)nc(OC)n1` here?
Answer: 112 °C

Question: Which melting point does the source give for `CN(Cc1cc(C(F)(F)F)cc(C(F)(F)F)c1)C(=O)c1c(-c2ccc(F)cc2)c2cccnc2c(=O)n1C` here?
Answer: 211 to 212 °C

Question: For `CC(F)(F)c1ccc2c(c1)C=C(C(=O)O)C(C(F)(F)F)O2` (stereo not given), which melting point is on record?
Answer: 156 to 158 °C

Question: For `COC(=O)CC(=O)NC[C@H]1CN(c2ccc3c(c2)CCCc2cnoc2-3)C(=O)O1`, which melting point is on record?
Answer: 205 to 217 °C

Question: Which melting point does the source give for `CCOC(=O)C1=C(C(OCC)OCC)NC(C)=C(C(=O)OCCCl)C1c1cccc([N+](=O)[O-])c1` (stereo not given) here?
Answer: 96 to 97 °C

Question: With `Cn1cc2c3c(c(F)cc2n1)CCC3=CC#N` as the compound, how does the melting point read?
Answer: 249 to 252 °C

Question: Which melting point does the source give for `CCC(CC)n1nnc2c(Cl)nc(C)cc21` here?
Answer: 78 to 79 °C

Question: For `CNC(=O)c1ccc(N2CCNCC2)cc1`, which melting point is on record?
Answer: 154 to 156 °C

Question: Which melting point does the source give for `CCN(CC)CC1CCCN(CCNC(=O)N2c3cc(Cl)ccc3C(=O)Nc3cccnc32)C1` (stereo not given) here?
Answer: 125 °C

Question: With `COc1ccc2[nH]c(C(=O)N3CCc4cc(C(=O)NO)ccc4C3)cc2c1` as the compound, how does the melting point read?
Answer: 156 °C

Question: With `O=C(Nc1cccc([N+](=O)[O-])c1)C1=C(Nc2ccccc2)COC1=O` as the compound, how does the melting point read?
Answer: 194 to 195 °C

Question: Which melting point does the source give for `Clc1ccc2c(C3CCN(CC4Cc5ccccc5C4)CC3)c[nH]c2c1Cl` here?
Answer: 141 to 142 °C

Question: Which melting point does the source give for `Cc1cc2c(=O)n(CCN3CCC(Nc4nc5ccccc5n4Cc4ccc(F)cc4)CC3)c(=S)[nH]c2s1` here?
Answer: 236 °C

Question: Which melting point does the source give for `Cn1c(CCCCN2CCN(c3cc(C(C)(C)C)nc(C(C)(C)C)n3)CC2)nnc1-c1ccccc1` here?
Answer: 144 to 145 °C

Question: For `COc1cc(OC)cc(C2CC=CCC2[N+](=O)[O-])c1` (stereo not given), which melting point is on record?
Answer: 73 to 75 °C

Question: Which melting point does the source give for `Nc1ncc2cc(-c3c(Cl)cccc3Br)c(N)nc2n1` here?
Answer: 264 to 280 °C

Question: With `CCCCc1nc2c(N)nc3cccnc3c2n1CCOc1ccccc1` as the compound, how does the melting point read?
Answer: 159 °C

Question: Which melting point does the source give for `N=C(N)c1cccc(CN(C(=O)Nc2ccc(-c3ccccc3S(N)(=O)=O)cc2)c2ccccc2)c1` here?
Answer: 201 to 202 °C

Question: Which melting point does the source give for `O=C1NC(=O)c2c1cc1ccc3c(c1c2-c1ccc(F)cc1)OCC3` here?
Answer: > 310 °C

Question: Which melting point does the source give for `Cc1cc(-c2cc(Br)n(C)n2)c(C)[nH]1` here?
Answer: 66 to 69 °C

Question: For `COC(=O)COc1ccc([N+](=O)[O-])c(F)c1`, which melting point is on record?
Answer: 93 to 94 °C

Question: Which melting point does the source give for `O=C(CN1CCN(C(=O)OCc2ccc(C(F)(F)F)cc2)CC1)N1CCC2(CC1)Cn1cc([N+](=O)[O-])nc1O2` here?
Answer: 139 to 141 °C

Question: Which melting point does the source give for `Cc1ccc(N2CCN(Cc3n[nH]c4ccccc34)CC2)cc1` here?
Answer: 176 to 177 °C

Question: Which melting point does the source give for `CC(C)(C)c1cc(C#N)c(Nc2ccccc2[N+](=O)[O-])s1` here?
Answer: 85 to 90 °C

Question: Which melting point does the source give for `Cc1c(NC(=O)c2ccc(OC[C@@H]3CCCO3)cc2)ccc2cc(CNCC3CC3)cnc12` here?
Answer: 156 to 158 °C

Question: With `CN1CCN(c2ccccc2C2=NC(C)(C)CO2)C(c2cccs2)C1` (stereo not given) as the compound, how does the melting point read?
Answer: 114 to 115 °C

Question: For `CC1=C(C)C(=O)N(C(=O)NCCc2ccc(S(=O)(=O)NC(=O)NC3CCCCC3)cc2)C1`, which melting point is on record?
Answer: 189 to 190 °C

Question: Which melting point does the source give for `CCc1cn(C2CC(OC)C(CO)O2)c(=O)[nH]c1=O` (stereo not given) here?
Answer: 118 to 127 °C

Question: For `O=C(CSc1c(O)cc(-c2ccccc2)oc1=O)c1ccccc1`, which melting point is on record?
Answer: 164 to 166 °C

Question: Which melting point does the source give for `Cc1cc(F)ccc1C(=Cc1nnnn1C)c1ccc(F)cc1C` here?
Answer: 120 to 125 °C

Question: For `NC(=O)c1c(Br)cc(Br)c(CCC(=O)O)c1Br`, which melting point is on record?
Answer: 197 °C

Question: For `c1cnc2c(c1)NCC2`, which melting point is on record?
Answer: 63 °C

Question: For `COCCCNC(=O)c1cnn(C)c1C(=O)Nc1ccn2nc(-c3ccccc3)nc2c1`, which melting point is on record?
Answer: 191 to 193 °C

Question: For `CCc1cccc(C)c1CNc1nc(C(=O)O)cc2c1nc(C)n2C`, which melting point is on record?
Answer: 233 to 236 °C

Question: Which melting point does the source give for `Clc1cccc(-c2nnnn2-c2cccnc2)c1Cl` here?
Answer: 124 to 126 °C

Question: With `COc1c(C(=O)O)cc(Cl)c2c1CCCN2` as the compound, how does the melting point read?
Answer: 129 to 132 °C

Question: Which melting point does the source give for `CC(C)(C)C(=O)NCCc1cccs1` here?
Answer: 79 to 80 °C

Question: With `O=C1N(Cc2ccc(OCc3ccccc3)cc2)c2ccccc2C12COc1cc3c(cc12)OCCO3` (stereo not given) as the compound, how does the melting point read?
Answer: 87 to 89 °C

Question: With `Cn1cc2c(C3C(=O)Nc4ccc(Br)cc43)nc(Cl)nc2n1` (stereo not given) as the compound, how does the melting point read?
Answer: > 300 °C

Question: With `CC(C)(C)OC(=O)NNC(=O)c1ncc(OCc2ccccc2)c(OCc2ccccc2)c1CCl` as the compound, how does the melting point read?
Answer: 170 to 171 °C

Question: With `Cn1cc(CN2C(=O)C3(COc4cc5c(cc43)OCO5)c3ccccc32)ccc1=O` (stereo not given) as the compound, how does the melting point read?
Answer: 115 to 118 °C

Question: For `CCOc1cc(Cn2cc(CCC(=O)O)c(-c3ccccc3)c2)cc(OCc2csc(-c3cnccn3)n2)c1`, which melting point is on record?
Answer: 97 to 98 °C

Question: For `CN1CC2=C(n3cnc(I)c3C1)S(=O)C=C2` (stereo not given), which melting point is on record?
Answer: 175 to 177 °C

Source: a melting point compilation (Tetko et al.; mined from patent text by program, amines drawn as free bases though some values may be those of a salt)
